Tested on: L. major lysate proteins
Assay: Multitargeted bead mixture chemoproteomics, single concentration competition, proteome-wide
Type: binding
Conditions: for fold change: vehicle control = 1

Nc1nc2c(c(=O)[nH]1)N(C=O)C(CNc1ccc(C(=O)N[C@@H](CCC(=O)O)C(=O)O)cc1)CN2 (stereo partly drawn) [LEU, leucovorin]
fold change vs vehicle control (protein LMJF.28.0490 PROPIONYL-COA C[…] CHAIN, PUTATIVE): 1.09
fold change (protein LMJF.28.0710 HYPOTHETICAL PROTEIN, CONSERVED (SNARE associated Golgi protein, putative)): 0.76
fold change vs vehicle control (protein LMJF.28.0930 HYPOTHETICAL PROTEIN, CONSERVED): 0.9
fold change vs vehicle control (protein LMJF.28.0960 40S RIBOSOMAL PROTEIN S14): 1.06
fold change vs vehicle control (protein LMJF.28.1530 ATP DEPENDENT DEAD-BOX HELICASE, PUTATIVE): 0.95
fold change relative to vehicle control (protein LMJF.28.1730, […]-ATP-ASE SUBUNIT 2, PUTATIVE): 1.27
fold change vs vehicle control (protein LMJF.28.2430 VACUOLAR ATP SYNTHASE SUBUNIT B, PUTATIVE): 1.01
fold change relative to vehicle control (protein LMJF.28.2770, HEAT-SHOCK PROTEIN HSP70, PUTATIVE): 1.32
fold change (protein LMJF.28.2910 GLUTAMATE DEHYDROGENASE, PUTATIVE): 1.1
fold change vs vehicle control (protein LMJF.29.0120 […]-ATPASE SUBUNIT, PUTATIVE): 1.15
fold change (protein LMJF.29.0620 ATP-BINDING CASSETTE PROTEIN SUBFAMILY A, MEMBER 10, PUTATIVE): 0.8
fold change vs vehicle control (protein LMJF.29.0760 […] BI[…], PUTATIVE,HEAT SHOCK PROTEIN 90, PUTATIVE): 1.05
fold change relative to vehicle control (protein LMJF.29.0850, HIGH MOBILITY GROUP PROTEIN HOMOLOG TDP-1, PUTATIVE): 2.2
fold change vs vehicle control (protein LMJF.29.0940 HY[…], CONSERVED): 1.06
fold change vs vehicle control (protein LMJF.29.1160 TRYPAREDOXIN): 1.05
fold change vs vehicle control (protein LMJF.29.1240 HYPOTHETICAL PROTEIN, UNKNOWN FUNCTION): 0.99
fold change vs vehicle control (protein LMJF.29.1270 100 kDa heat shock protein (Hsp100)): 0.99
fold change vs vehicle control (protein LMJF.29.1310 CARNITINE/CHOLINE ACETYLTRANSFERASE, PUTATIVE): 0.93
fold change relative to vehicle control (protein LMJF.29.1760, PAR[…] PROTEIN 1D, PUTATIVE): 1.22
fold change vs vehicle control (protein LMJF.29.1780 D[…] PROTEIN, PUTATIVE): 1.01
fold change (protein LMJF.29.2200 GTP-BINDING PROTEIN, PUTATIVE (dynamin-1-like protein)): 0.99
fold change (protein LMJF.29.2310 ENOYL-COA HYDRATASE/ISOMERASE-LIKE PROTEIN): 0.93
fold change vs vehicle control (protein LMJF.29.2360 ASPARTYL AMINOPEPTIDASE, PUTATIVE,METALLO-PEPTIDASE, CLAN MH, FAMILY M20): 1.08
fold change (protein LMJF.29.2860 40S RIBOSOMAL PROTEIN S19-LIKE PROTEIN): 1.01
fold change (protein LMJF.30.0580 HYPOTHETICAL PROTEIN, CONSERVED (AMP-binding enzyme, putative)): 0.99
fold change (protein LMJF.30.0850 SURFACE PROTEIN AMASTIN, PUTATIVE): 0.99
fold change vs vehicle control (protein LMJF.30.1250 PYRIDOXAL KINASE, PUTATIVE): 1.08
fold change vs vehicle control (protein LMJF.30.2580 RETICULON DOMAIN PROTEIN, 22 KDA POTENTIALLY AGGRAVATING PROTEIN (PAPLE22)): 0.97
fold change relative to vehicle control (protein LMJF.30.3090, HY[…], CONSERVED (RNA-binding protein 42, putative)): 1.16
fold change vs vehicle control (protein LMJF.30.3240 GLUTAMYL-TRNA SYNTHETASE, PUTATIVE): 0.9
fold change (protein LMJF.30.3380 PAS-DOMAIN CONTAINING PHOSPHOGLYCERATE KINASE, PUTATIVE): 0.97
fold change (protein LMJF.30.3430 HYPOTHETICAL PROTEIN, CONSERVED (protein mkt1, putative)): 0.93
fold change (protein LMJF.30.3520 S-ADENOSYLMETHIONINE SYNTHETASE): 0.9
fold change (protein LMJF.30.3570 ZINC FINGER-DOMAIN PROTEIN, PUTATIVE): 0.81
fold change relative to vehicle control (protein LMJF.31.0080, HY[…], CONSERVED): 1.25
fold change vs vehicle control (protein LMJF.31.0340 AMINO ACID PERMEASE, PUTATIVE): 1.03
fold change (protein LMJF.31.1130 N-ACYL-L-AMINO ACID AMIDOHYDROLASE, PUTATIVE): 1
fold change vs vehicle control (protein LMJF.31.1640 THIOLASE PROTEIN-LIKE PROTEIN): 1.02
fold change relative to vehicle control (protein LMJF.31.2150, PROSTAGLANDIN F2-ALPHA SYNTHASE/D-ARABINOSE DEHYDROGENASE): 1.25
fold change vs vehicle control (protein LMJF.31.2250 3,2-TRANS-ENOYL-COA ISOMERASE, MIT[…], PUTATIVE): 0.92
fold change vs vehicle control (protein LMJF.32.0750 RNA BINDING PROTEIN, PUTATIVE): 1.05
fold change vs vehicle control (protein LMJF.32.1060 DYNEIN, PUTATIVE): 1.02
fold change relative to vehicle control (protein LMJF.32.1820, IRON […], PUTATIVE): 1.22
fold change relative to vehicle control (protein LMJF.32.2320, C-14 STEROL REDUCTASE, PUTATIVE): 1.12
fold change vs vehicle control (protein LMJF.32.3870 MYOSIN XXI): 0.9
fold change relative to vehicle control (protein LMJF.33.0240, THIOL-DEPENDENT REDUCTASE 1): 1.13
fold change (protein LMJF.33.0280 HYPOTHETICAL PROTEIN, CONSERVED): 0.89
fold change relative to vehicle control (protein LMJF.33.0890, HY[…], CONSERVED): 0.98
fold change vs vehicle control (protein LMJF.33.1070 HY[…], UNKNOWN FUNCTION): 1.03
fold change vs vehicle control (protein LMJF.33.1330 CYSTEINE CONJUGATE BETA-LYASE, AMINOTRANSFERASE- LIKE PROTEIN): 0.87
fold change (protein LMJF.33.1590 HY[…], CONSERVED (3-ketoacyl-CoA reductase, putative)): 1.46
fold change relative to vehicle control (protein LMJF.33.1860, ATP-BINDING CASSETTE PROTEIN SUBFAMILY D, MEMBER 3, PUTATIVE): 1.04
fold change relative to vehicle control (protein LMJF.33.2340, SUCCINYL-COA:3-KETOACID-COENZYME A TRANSFERASE, MIT[…], PUTATIVE): 1.09
fold change relative to vehicle control (protein LMJF.33.2440, HY[…], CONSERVED): 1.07
fold change relative to vehicle control (protein LMJF.33.2540, CARBOXYPEPTIDASE, PUTATIVE,METALLO-PEPTIDASE, CLAN MA(E), FAMILY M32): 1.95
fold change (protein LMJF.33.3150 40S RIBOSOMAL PROTEIN S13, PUTATIVE): 0.89
fold change relative to vehicle control (protein LMJF.34.0140, MALATE DEHYDROGENASE): 1.53
fold change vs vehicle control (protein LMJF.34.0440 RIBOSOMAL PROTEIN S25): 1.25
fold change relative to vehicle control (protein LMJF.34.2580, HY[…], CONSERVED (ALBA-domain protein 3)): 1.01
fold change relative to vehicle control (protein LMJF.34.3250, PUTATIVE PYRUVATE/INDOLE-PYRUVATE CARBOXYLASE, PUTATIVE): 1.08
fold change (protein LMJF.34.4370 20S PROTEASOME BETA 7 SUBUNIT, (PUTATIVE)): 0.92
fold change vs vehicle control (protein LMJF.34.4620 HYPOTHETICAL PROTEIN, CONSERVED): 0.95
fold change (protein LMJF.35.0070 PROHIBITIN, PUTATIVE): 0.93
fold change vs vehicle control (protein LMJF.35.0360 ENOYL-COA HYDRATASE/ISOMERASE FAMILY PROTEIN, CONSERVED): 1.24
fold change (protein LMJF.35.0370 ATP-DEPENDENT DEAD-BOX RNA HELICASE, PUTATIVE): 0.97
fold change (protein LMJF.35.0420 40S RIBOSOMAL PROTEIN S3A, PUTATIVE): 1.03

Reference: PMC6199744, “Development of Chemical Proteomics for the Folateome and Analysis of the Kinetoplastid Folateome” (ACS Infectious Diseases, 2018)
